# Patent publication US20260184807A1, “Methods for Treating Rheumatoid Arthritis Using a Syndecan-1 Inhibitor or Syntenin-1 Inhibitor” (The United States Government as represented by the …, priority 2022, published 2026)
# System: HUVECs
# Experiment: Metabolite quantification in Syntenin-1 treated HUVECs (colorimetric assay)
# Assay type: cell-based, human
# Settings: Syntenin-1 1000 ng/ml 24 h, HIF1αi 2 μM, mTORi 1 μM, FIGS. 13I-K
# Experimental: HUVECs were treated with 20 Syntenin-1 (1000 ng/ml) for 0-60 mins to detect expression of GLUT1. HK2. PFK2, cMYC. HIF1α, and LDHA (FIG. 13B) or 0-48 h to detect HK2, PFK2, mTOR/RAPTOR and LDHA (FIG. 13C) and actin was visualized as equal loading, (n=3). HUVECs were treated with PBS or Syntenin-1 (1000 ng/ml) in the presence or absence of 2-DG (5 mM), cMYCi (50 μM) and/or mTORi (1 μM) or HIF1αi (2 μM) to quantify transcription of HIF1α (FIG. 13E, n=10), RAPTOR (FIG. 13F, n=7). TNF (FIG. 13H, n=5). […] HUVECs were treated with PBS or Syntenin-1 (1000 ng/ml) in the presence or absence of SDC-1 Ab (SDCab: 1:100). […] Data are presented as mean±SEM; significant differences were determined by the Mann-Whitney test, 2way ANOVA, or one-way ANOVA. *p<0.05. **p<0.01, ***p<0.001, ****p<0.0001.
# FIGS. 20A-F show blood Syntenin-1 and SDC-1 relative levels are unaffected by RA therapy and glycolytic metabolites can modulate inflammatory factors and oxidative metabolites in Syntenin-1 reprogrammed endothelial cells. Relative expression of Syntenin-1 (FIG. 20A) or SDC-1 (FIG. 20B) was determined by RNAseq (Lewis M J, et al. Cell reports. 2019; 28:2455-2470 e2455) in blood from RA non-responsive (Non-R)(ΔDAS28≤0.6, n=16) or those with moderate (ΔDAS28≤1.2 & >0.6, n=22) or good response (ΔDAS28>1.2, n=21). […]
# Metabolite quantification. […]
smiles,measurement,value
"CO[C@H]1C[C@@H]2CC[C@@H](C)[C@@](O)(O2)C(=O)C(=O)N2CCCC[C@H]2C(=O)O[C@H]([C@H](C)C[C@@H]2CC[C@@H](OCCO)[C@H](OC)C2)CC(=O)[C@H](C)/C=C(\C)[C@@H](O)[C@@H](OC)C(=O)[C@H](C)C[C@H](C)/C=C/C=C/C=C/1C [mTORi, Everolimus]","oxidative metabolites, AMPK, PGC-1a, and citrate",unchanged
